Measurements from patent US20250195457A1, “PHARMACEUTICAL COMPOSITION FOR TREATMENT OF PARKINSON'S DISEASE” (Eisai R&D Management Co., Ltd., priority 2022, published 2025).

Tests used:
[1] = test system: levodopa-induced dyskinesia model cynomolgus monkeys; test: Test Example 3: dyskinesia score in levodopa-induced dyskinesia model monkeys; type: in vivo; parameters: key to Dyskinesia score: dyskinesia score 0 = normal home cage activity to 4 = severe stereotypy
Experimental: A levodopa/carbidopa mixture containing 80 mg/kg of levodopa and 20 mg/kg of carbidopa and having a solution volume of 5 mL/kg was orally administered to Parkinson's disease model cynomolgus monkeys at the age of 6 to 7 prepared in the same way as in Test Example 1 for 8 consecutive days to provide levodopa-induced dyskinesia model cynomolgus monkeys. The induction of dyskinesia was determined based on the “dyskinesia score” in accordance with the following behavior evaluation items in the following test on activity in home cages, and animals having dyskinesia scores of 1 or more on day 7 of the repeated administration of the levodopa/carbidopa mixture were used.
Home cage activities corresponding to dyskinesia scores • 0: Normal home cage activity (exploring or inactivity, able to drink water, plays with mirror or caging, climbing of the walls). • 1: Some interference with normal activity, however able to climb walls. • 2: Occasional exploration of cage, some stereotypy • 3: Little normal movement, lack of climbing of walls, clear stereotypy • 4: Lack of normal home cage activity, lack of normal exploratory behavior and movement, severe stereotypy
Seven levodopa-induced dyskinesia model cynomolgus monkeys were randomized into 4 groups of approximately equal mean and variance in terms of body weight. On subsequent cycles 2, 3, and 4, the animals were crossed over to receive the other treatment. A wash out period of one week or more was set between cycles.
One of the seven animals was excluded from the evaluation of cycles 3 and 4 because it was unable to get up due to dyskinesia on day 8 in cycle 3 of the repeated administration of the levodopa/carbidopa mixture.
By the end of the study, each animal had received all the four treatments. Each substance was administered 1 hr. after the administration on day 8 of the repeated administration of the levodopa/carbidopa mixture. As a vehicle, an aqueous solution containing 0.43% (w/v) methyl cellulose 400, 10% (v/v) dimethyl sulfoxide (DMSO), and 4.5% (w/v) Cremophor (R) were used.
Before the administration, and 1 hr., 4 hrs., and 24 hrs. after the administration of the test substances, the dyskinesia scores of the animals were evaluated. The behavior evaluation was performed in a blinded manner. The dyskinesia scores of the groups were compared using Steel's test. The p-values of less than 0.05 were considered to be statistically significant.

mouse kindling model = details: anti-seizure effect (ED50) in mouse kindling model versus neurotoxic effect (TD50) in rotarod test; compared with a control compound; cited from earlier work
various animal models = details: cited from earlier work

NS(=O)(=O)N[C@H]1c2c(F)cc(F)cc2CC1(F)F [Compound (I), N-[(1S)-2,2,5,7-tetrafluoro-2,3-dihydro-1H-inden-1-yl]sulfamide]
Dyskinesia score ([1]; Compound (I) 25 mg/kg (G2), 1 hr. after administration): 2.0 ± 0.0 | Dyskinesia score ([1]; Compound (I) 25 mg/kg (G2), 4 hrs. after administration): 1.6 ± 0.2 | Dyskinesia score ([1]; Compound (I) 25 mg/kg (G2), 24 hrs. after administration): 2.0 ± 0.0 | Dyskinesia score ([1]; Compound (I) 25 mg/kg (G2), Pre (before administration)): 1.7 ± 0.2 | Dyskinesia score ([1]; Compound (I) 50 mg/kg (G3), 1 hr. after administration): 1.8 ± 0.2 | Dyskinesia score ([1]; Compound (I) 50 mg/kg (G3), 4 hrs. after administration): 1.3 ± 0.2 | Mean value of the dyskinesia scores compared with other groups ([1]; Compound (I) 50 mg/kg (G3), 4 hrs. after the administration, versus vehicle (G1) and istradefylline (G4)): lower as compared with the vehicle-treated group (G1) and the istradefylline-treated group (G4) | Dyskinesia score ([1]; Compound (I) 50 mg/kg (G3), 24 hrs. after administration): 1.8 ± 0.2 | Dyskinesia score ([1]; Compound (I) 50 mg/kg (G3), Pre (before administration)): 1.7 ± 0.2 | therapeutic index (TD50/ED50) (mouse kindling model): higher | analgesic effect (various animal models): exhibit an analgesic effect
